Assay [1] deals with T1, Histamine H3 receptor (Homo sapiens, UniProt Q9Y5N1). Put plainly: Binding affinity to SP-FLAG tagged human histamine H3 receptor expressed in HEK293T cells using sodium containing Leibovitz's L-15 medium incubated for 60 min by scintillation counter analysis. The class given is cell-based.
Assay [2] deals with T1, Histamine H3 receptor. The assay is described as follows: Displacement of [3H]UR-MN259 from SP-FLAG tagged human histamine H3 receptor expressed in HEK293T cells assessed as inhibition constant incubated for 60 min by scintillation counter analysis. The class given is cell-based.
Assay [3] addresses T1, Histamine H3 receptor. Put plainly: Agonist activity at human histamine H3 receptor in HEK293T cells expressing H3R-NlucC/NlucN-mGsi construct using furimazine as substrate upto 10 uM by MiniG recruitment assay. The class given is functional, cell-based.
A further assay deals with Histamine H2 receptor (Homo sapiens, UniProt P25021). The assay is described as follows: Displacement of [3H]UR-KAT479 from SP-FLAG tagged human histamine H2 receptor expressed in HEK293T cells assessed as inhibition constant incubated for 60 min by scintillation counter analysis. The class given is cell-based.
Histamine H2 receptor, sequence (P25021 whole entry): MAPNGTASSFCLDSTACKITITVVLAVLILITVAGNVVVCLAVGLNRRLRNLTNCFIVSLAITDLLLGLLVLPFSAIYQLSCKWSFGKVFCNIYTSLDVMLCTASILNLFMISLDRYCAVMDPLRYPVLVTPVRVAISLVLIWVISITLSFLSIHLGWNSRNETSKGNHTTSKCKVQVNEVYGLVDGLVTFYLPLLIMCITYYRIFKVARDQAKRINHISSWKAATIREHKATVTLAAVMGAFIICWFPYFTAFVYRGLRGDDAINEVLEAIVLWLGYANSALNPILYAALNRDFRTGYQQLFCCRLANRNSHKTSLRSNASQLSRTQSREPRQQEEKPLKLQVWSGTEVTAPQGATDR
In assay [4] the target is T1, Histamine H3 receptor. The assay is described as follows: Displacement of UR-NR266 from NLuc-tagged human histamine H3 receptor expressed in HEK293T cells assessed as inhibition constant incubated for 5 mins followed by UR-NR266 addition by furimazine based NanoBRET competition binding assay. The class given is cell-based. (In BRET a luciferase serves as donor, and the signal depends on an acceptor being close.)

Assay [5] addresses T1, Histamine H3 receptor. The assay is described as follows: Binding affinity to SP-FLAG tagged human histamine H3 receptor expressed in HEK293T cells assessed as association time constant incubated for 60 mins by scintillation counting analysis. The class given is cell-based. Conditions: tested as the 3H-labelled form.
A further assay concerns the target Histamine H1 receptor (Homo sapiens, UniProt P35367). The assay is described as follows: Displacement of [3H]mepyramine from SP-FLAG tagged human histamine H1 receptor expressed in HEK293T cells assessed as inhibition constant incubated for 60 min by scintillation counter analysis. The class given is cell-based. A general note: Displacement assays read how much labelled ligand stays bound in the presence of the test substance.

Assay [6] deals with T1, Histamine H3 receptor. The assay is described as follows: Binding affinity to SP-FLAG tagged human histamine H3 receptor expressed in HEK293T cells assessed as maximum binding. The class given is cell-based. As to conditions: tested as the 3H-labelled form.
The next assay concerns the target Histamine H4 receptor (Homo sapiens, UniProt Q9H3N8). The assay is described as follows: Displacement of [3H]histamine from SP-FLAG tagged human histamine H4 receptor expressed in HEK293T cells assessed as inhibition constant incubated for 60 min by scintillation counter analysis. The assay is classed as cell-based.
Assay [7] addresses T1, Histamine H3 receptor. The assay is described as follows: Binding affinity to SP-FLAG tagged human histamine H3 receptor expressed in HEK293T cells assessed as dissociation time constant incubated for 30 mins by scintillation counting analysis. The assay is classed as cell-based. As to conditions: tested as the 3H-labelled form.
The species named for assay [8] is Homo sapiens. The assay is described as follows: Selectivity ratio of Ki for human histamine H2 receptor to Ki for human histamine H3 receptor.
For assay [9], the species on record is Homo sapiens. The assay is described as follows: Selectivity ratio of Ki for human histamine H4 receptor to Ki for human histamine H3 receptor.
Assay [10] concerns the target T1, Histamine H3 receptor. The assay is described as follows: Binding affinity to SP-FLAG tagged human histamine H3 receptor expressed in HEK293T cells assessed as association rate constant incubated for 60 mins by scintillation counting analysis. As to conditions: tested as the 3H-labelled form. The class given is cell-based.
In assay [11] the target is T1, Histamine H3 receptor. The assay is described as follows: Binding affinity to SP-FLAG tagged human histamine H3 receptor expressed in HEK293T cells. The assay is classed as cell-based. Conditions: tested as the 3H-labelled form.
Assay [12] deals with T1, Histamine H3 receptor. Put plainly: Antagonist activity at human histamine H3 receptor in HEK293T cells expressing H3R-NlucC/NlucN-mGsi construct using furimazine as substrate assessed as displacement of histamine by MiniG recruitment assay. The assay is classed as functional, cell-based. Conditions: filed as antagonist.
Assay [13] is filed under the species Homo sapiens. The assay is described as follows: Selectivity ratio of Ki for human histamine H1 receptor to Ki for human histamine H3 receptor.
The target in assay [14] is T1, Histamine H3 receptor. Put plainly: Binding affinity to SP-FLAG tagged human histamine H3 receptor expressed in HEK293T cells assessed as dissociation rate constant incubated for 30 mins by scintillation counting analysis. Conditions: tested as the 3H-labelled form. The class given is cell-based.
Assay [15] addresses T1, Histamine H3 receptor. The assay is described as follows: Binding affinity to SP-FLAG tagged human histamine H3 receptor expressed in HEK293T cells assessed as kinetic dissociation constant incubated for 30 mins by scintillation counting analysis. The assay is classed as cell-based.
For assay [16], the target named is T1, Histamine H3 receptor. The assay is described as follows: Binding affinity to SP-FLAG tagged human histamine H3 receptor expressed in HEK293T cells assessed as dissociation constant by incubated for 30 mins by scintillation counting analysis. The assay is classed as cell-based.

The source of these data is ChEMBL document CHEMBL5390287, “Discovery of a Tritiated Radioligand with High Affinity and Selectivity for the Histamine H3 Receptor” (ACS Med Chem Lett, 2023).

The structures appear in SMILES notation. Active and inactive are the calls of the source. The rule behind the calls is not given here.

T1 sequence (Q9Y5N1 whole entry): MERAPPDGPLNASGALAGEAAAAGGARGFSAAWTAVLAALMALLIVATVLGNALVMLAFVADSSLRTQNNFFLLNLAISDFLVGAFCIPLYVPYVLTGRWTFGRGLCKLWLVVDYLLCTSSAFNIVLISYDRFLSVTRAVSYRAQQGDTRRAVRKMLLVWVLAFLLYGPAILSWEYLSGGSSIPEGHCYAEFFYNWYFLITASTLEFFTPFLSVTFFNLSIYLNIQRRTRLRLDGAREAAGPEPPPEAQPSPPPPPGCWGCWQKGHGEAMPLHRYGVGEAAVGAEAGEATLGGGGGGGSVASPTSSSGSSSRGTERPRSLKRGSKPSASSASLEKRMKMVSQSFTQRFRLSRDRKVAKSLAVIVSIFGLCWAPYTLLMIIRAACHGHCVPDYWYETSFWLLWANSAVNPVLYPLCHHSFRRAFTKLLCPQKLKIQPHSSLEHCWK
Histamine H1 receptor, sequence (P35367 whole entry): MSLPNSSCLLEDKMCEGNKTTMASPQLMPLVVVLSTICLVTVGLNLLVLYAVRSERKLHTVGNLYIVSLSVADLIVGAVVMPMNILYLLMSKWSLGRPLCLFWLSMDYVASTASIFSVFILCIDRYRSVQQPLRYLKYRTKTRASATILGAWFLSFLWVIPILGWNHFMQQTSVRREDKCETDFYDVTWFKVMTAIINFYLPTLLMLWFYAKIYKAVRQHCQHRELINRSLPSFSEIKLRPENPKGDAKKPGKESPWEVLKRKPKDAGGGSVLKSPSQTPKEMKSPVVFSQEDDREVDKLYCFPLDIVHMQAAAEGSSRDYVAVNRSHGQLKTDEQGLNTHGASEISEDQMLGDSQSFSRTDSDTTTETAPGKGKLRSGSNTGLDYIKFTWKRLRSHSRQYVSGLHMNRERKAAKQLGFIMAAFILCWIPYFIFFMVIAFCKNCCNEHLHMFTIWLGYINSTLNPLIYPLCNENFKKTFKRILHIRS
Histamine H4 receptor, sequence (Q9H3N8 whole entry): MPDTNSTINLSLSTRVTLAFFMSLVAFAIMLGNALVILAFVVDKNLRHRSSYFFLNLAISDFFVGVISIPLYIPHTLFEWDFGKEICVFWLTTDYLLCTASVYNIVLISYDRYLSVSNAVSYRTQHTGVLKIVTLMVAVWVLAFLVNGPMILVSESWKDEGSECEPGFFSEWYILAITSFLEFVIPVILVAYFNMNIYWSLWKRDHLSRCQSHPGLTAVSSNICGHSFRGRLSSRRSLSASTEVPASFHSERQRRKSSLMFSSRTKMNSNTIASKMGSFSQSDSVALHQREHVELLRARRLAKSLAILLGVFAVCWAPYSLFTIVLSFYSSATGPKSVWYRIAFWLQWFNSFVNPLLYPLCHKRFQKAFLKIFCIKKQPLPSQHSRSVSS

What is called Ki is the dissociation constant of the complex between target and ligand, obtained from inhibition or displacement. For the compound `N=C(N)SCCc1cnc[nH]1` [IMETIT], the inhibition constant (Ki) at Histamine H3 receptor [1] is 28.2 nM; at Histamine H3 receptor [2], 5.75 nM.
Usually pKb stands for −log10 of the Kb, conventionally taken in molar units. `CCC(=O)NC1CCN(Cc2ccc(OCCCN3CCCCC3)cc2)CC1`: the outcome at Histamine H3 receptor [3] was inactive. Besides, the Ki on Histamine H2 receptor was greater than 100000 nM; on Histamine H3 receptor [4], 0.275 nM; on Histamine H3 receptor [1] it was 0.288 nM; on Histamine H1 receptor, greater than 100000 nM; at Histamine H4 receptor, greater than 100000 nM; on Histamine H3 receptor [2], 0.282 nM. Also, the values for the TIME on Histamine H3 receptor [5] and on Histamine H3 receptor [7] were 0.102 h and 0.241 h, respectively. In addition, the Bmax (disintegrations/minute) at Histamine H3 receptor [6] amounted to 1670. Also, the Ratio Ki in the assay filed under Homo sapiens [8], in the assay listed under Homo sapiens [9] and in the assay filed under Homo sapiens [13] was greater than 100 each time. Besides, the K on Histamine H3 receptor [10] came to 3.67e+06 M⁻¹ s⁻¹; on Histamine H3 receptor [14] it was 0.07 min⁻¹. This compound came in with a Kobs on Histamine H3 receptor [11] of 0.18 min⁻¹. Further, at Histamine H3 receptor [12], the negative-log Kb (pKb) was 9.39.
A word on the Kd: it is the concentration at which binding is half-saturated. As for `[3H]C([3H])([3H])C([3H])([3H])C(=O)NC1CCN(Cc2ccc(OCCCN3CCCCC3)cc2)CC1`, the Kd at Histamine H3 receptor [15] is 0.324 nM; on Histamine H3 receptor [1] it was 0.513 nM; at Histamine H3 receptor [16], 0.562 nM.
